According to patent US4226883A, “Carbamate derivatives and method for manufacture thereof” (priority 1974, dated 1980):
Where two headings read alike, the source gives them in different places.

How the values were obtained:
[1] = tested on: resistant green rice leafhoppers (R); conditions: 1440 min; for Insecticidal Activity R/S (resistant ratio): ratio of the resistant strain to the susceptible strain (LD50)
Experimental: (1) A 20-mg portion of a given test compound was weighed out and dissolved in 10 ml of acetone. The resultant solution was diluted at proper times with acetone.
(2) With a micro-syringe, the acetone solution of the test compound was topically applied to the thoracic region of female green rice leafhoppers at a fixed dose of 0.2 μl per head.
(3) The female green rice leafhoppers thus treated were placed in a plastic cup prepared in advance (measuring 7 cm in diameter and 3.5 cm in depth and containing rice seeds) and kept at a constant temperature of 26±1° C. After 24 hours' standing, the dead insects were counted.
In the case of a mixed insecticide, the LD50 was shown as a total dosage.

[2] = tested on: green rice leafhoppers of the strain RN; experiment: Test Example 3: dust spray test (20 mesh metal gauze cylinder); format: in vivo, Nephotettix cincticeps; conditions: for Effect of individual compound (RN), death ratio (%) (Table 9): dust, compound alone, RN strain
Experimental: The insecticides in the form of dust were tested for insecticidal activity.
The test for insecticidal activity was performed by the following procedure. […] The dust of a test compound (pulverized by means of a shaking pulverizer made by Taira Kosakusho, Ltd.) was applied onto the tube contents at a prescribed rate by spraying from outside the metal gauze by means of a bell-jar duster. The dust of the test compound was prepared uniformly mixing 2 parts of the dust of the individual compound or 1 part each of the dusts of the mixture components (total 2 parts) and 98 parts of a carrier obtained by mixing talc and clay in equal volumes.

[3] = target: cholinesterase (ChE), susceptible strain; experiment: Inhibition of cholinesterase (acetylthiocholine method), susceptible strain enzyme; format: biochemical, green rice leafhopper, Nephotettix cincticeps; conditions: 50% inhibition concentration, 30° C. 30 min with inhibitor, read-out: Inhibition of Cholinesterase I50 (M) S
Experimental: The activity of ChE was performed by the acethyethiocholine method [Ellman (1961), Biochemical Pharmacology 7: 88-95].
[…]. After centrifuged (30,000 g, 10 min.), the supernatant was used as the source of ChE.
(§1) (2) Inhibition: 1.0 ml of enzyme solution was incubated with 0.1 ml of inhibitor which diluted with acetone at 30° C. for 30 min. ((2) solution).
(3) Determination of ChE activity: 1.0 ml of acetylthiochline (3.5/2×10^-2 M), 1.0 ml of DTNB (5,5'-dithiobis-2-nitrobenzoic acid, 2.5×10^-4 M) and 4.0 ml of phosphate buffer (1/15 M, pH 7.4) were added to the (2) solution and incubated at 30° C. for 10 min. After incubation, […] of eserine (2×10^-3 M) was added in order to stop the enzyme reaction and the optical density of the yellow solution was measured at 412 mμ on the spectrophotometer.

[4] = tested on: cholinesterase (ChE), resistant strain; format: biochemical, green rice leafhopper, Nephotettix cincticeps; conditions: for Inhibition of Cholinesterase R/S (resistant ratio): ratio of the resistant strain to the susceptible strain (I50), 30 min; for IC50: resistant strain, 50% inhibition concentration, 30° C. 30 min with inhibitor, read-out: Inhibition of Cholinesterase I50 (M) R
Experimental: After centrifuged (30,000 g, 10 min.), the supernatant was used as the source of ChE.
as §1
(3) Determination of ChE activity: 1.0 ml of acetylthiochline (3.5/2×10^-2 M), 1.0 ml of DTNB (5,5'-dithiobis-2-nitrobenzoic acid, 2.5×10^-4 M) and 4.0 ml of phosphate buffer (1/15 M, pH 7.4) were added to the (2) solution and incubated at 30° C. for 10 min.

[5] = 2% dust, 250 mg, 24 hr, read-out: Mortality (%) after 24 hr., 250 mg Spray (Table 7)
[6] = 2% dust, 100 mg, 24 hr, read-out: Mortality (%) after 24 hr., 100 mg Spray (Table 7)
[7] = Table 8, dust 100 mg, 24 hr, read-out: Mortality (%) after 24 hr., Spray Volume 100 mg
[8] = Table 8, dust 250 mg, 24 hr, read-out: Mortality (%) after 24 hr., Spray Volume 250 mg

SMILES | Insecticidal Activity R/S (resistant ratio) [1] | mortality at 250 mg/cylinder [2, 5] | IC50 [3] | Inhibition of Cholinesterase R/S (resistant ratio) [4] | IC50 [4] | other results
C=CCNC(=O)Oc1ccccc1C(C)C [Compound 5, 2-isopropylphenyl-N-allylcarbamate] | 3.1 |  |  |  |  | 
CCNC(=O)Oc1ccccc1C(C)CC (centres unmarked) [Compound 7, 2-sec-butylphenyl-N-ethylcarbamate] | 2.6 |  |  |  |  | 
C=CCNC(=O)Oc1ccccc1C(C)CC (centres unmarked) [Compound 10, 2-sec-butylphenyl-N-allylcarbamate] | 4.3 | 100% |  |  |  | 
CCCNC(=O)Oc1cccc(C(C)C)c1 [Compound 13, 3-isopropylphenyl-N-n-propylcarbamate] | 1.4 |  |  |  |  | 
CCCCNC(=O)Oc1cccc(C(C)C)c1 [Compound 14] |  |  | 7.4e-05 M | 0.2 | 1.7e-05 M | 
C=CCNC(=O)Oc1cccc(C(C)CCC)c1 (centres unmarked) [Compound 23] | 0.7 |  |  | 0.3 | 1.3e-06 M | 
CNC(=O)Oc1cccc(C)c1 [Compound 24, 3-methylphenyl-N-methylcarbamate, reference compound] | 9.9 | 20% |  |  |  | mortality at 100 mg/cylinder [2, 6]: 0%; mortality at 100 mg/cylinder [2, 7]: 0%; mortality at 250 mg/cylinder [2, 8]: 20%; Effect of individual compound (RN), death ratio (%) (Table 9) [2]: 0%
CCNC(=O)Oc1cccc(C)c1 [Compound 25, 3-methylphenyl-N-ethylcarbamate] | 3.7 |  |  |  |  | 
CCCCNC(=O)Oc1cccc(C)c1 [Compound 27] |  |  | > 0.001 M | < 0.3 | 0.00027 M | 
C=CCNC(=O)Oc1cccc(C)c1 [Compound 28, 3-methylphenyl-N-allylcarbamate] | 1.8 | 100% |  |  |  | mortality at 100 mg/cylinder [2, 6]: 60%
CCCNC(=O)Oc1cccc(CC)c1 [Compound 31, 3-ethylphenyl-N-n-propylcarbamate] | 0.5 |  |  |  |  | 
CCCNC(=O)Oc1cccc(C(C)(C)C)c1 [Compound 33, 3-tert-butylphenyl-N-n-propylcarbamate] | 1.5 |  |  |  |  | 
CNC(=O)Oc1ccc(C)c(C)c1 [Compound 35, 3,4-dimethylphenyl-N-methylcarbamate, reference compound] | 4.7 |  |  |  |  | mortality at 100 mg/cylinder ([2]; 24 h, read-out: Mortality (%) after 24 hr., 100 mg Spray (Table 7)): 0%; mortality at 250 mg/cylinder ([2]; 24 h, read-out: Mortality (%) after 24 hr., 250 mg Spray (Table 7)): 0%; mortality at 100 mg/cylinder ([2]; 24 h, read-out: Mortality (%) after 24 hr., Spray Volume 100 mg): 0%; mortality at 250 mg/cylinder ([2]; 24 h, read-out: Mortality (%) after 24 hr., Spray Volume 250 mg): 0%
CCNC(=O)Oc1ccc(C)c(C)c1 [Compound 36, 3,4-dimethylphenyl-N-ethylcarbamate] | 3.3 | 80% |  |  |  | mortality at 100 mg/cylinder [2, 6]: 55%
CCCCNC(=O)Oc1ccc(C)c(C)c1 [Compound 38] |  |  | 0.00056 M | 0.04 | 2e-05 M | 
C=CCNC(=O)Oc1ccc(C)c(C)c1 [Compound 39, 3,4-dimethylphenyl-N-allylcarbamate] | 0.8 | 60% |  |  |  | mortality at 100 mg/cylinder [2, 6]: 50%
CNC(=O)Oc1cc(C)cc(C)c1 [Compound 40, 3,5-dimethylphenyl-N-methylcarbamate, reference compound] | 5.3 | 15% |  |  |  | mortality at 100 mg/cylinder [2, 6]: 5%; mortality at 100 mg/cylinder [2, 7]: 5%; mortality at 250 mg/cylinder [2, 8]: 15%; Effect of individual compound (RN), death ratio (%) (Table 9) [2]: 0%

SMILES | Insecticidal Activity R/S (resistant ratio) [1] | mortality at 250 mg/cylinder [2, 5] | IC50 [3] | Inhibition of Cholinesterase R/S (resistant ratio) [4] | IC50 [4] | other results
CCCCNC(=O)Oc1cc(C)cc(C)c1 [Compound 43] |  |  | 0.00068 M | 0.04 | 2.7e-05 M | 
C=CCNC(=O)Oc1cc(C)cc(C)c1 [Compound 44, 3,5-dimethylphenyl-N-allylcarbamate] | 0.9 | 80% |  |  |  | mortality at 100 mg/cylinder [2, 6]: 60%
CNC(=O)Oc1cc(C)cc(C(C)C)c1 [Compound 45, 3-methyl-5-isopropylphenyl-N-methylcarbamate, reference compound] | 11.6 | 10% |  |  |  | mortality at 100 mg/cylinder [2, 6]: 0%
CCNC(=O)Oc1cc(C)cc(C(C)C)c1 [Compound 46, 3-methyl-5-isopropylphenyl-N-ethylcarbamate] | 0.9 | 70% |  |  |  | mortality at 100 mg/cylinder [2, 6]: 45%
CCCNC(=O)Oc1cc(C)cc(C(C)C)c1 [Compound 47, 3-methyl-5-isopropylphenyl-N-n-propylcarbamate] | 1.4 | 100% |  |  |  | mortality at 100 mg/cylinder [2, 6]: 70%
CCCCNC(=O)Oc1cc(C)cc(C(C)C)c1 [Compound 48] |  |  | > 0.001 M | < 0.09 | 8.8e-05 M | 
CNC(=O)Oc1cc(C)c(C)cc1C [Compound 59, reference compound] |  |  | 2.3e-06 M | 24.8 | 5.7e-05 M | 
CNC(=O)Oc1ccccc1OC(C)C [Compound 81, 2-isopropoxyphenyl-N-methylcarbamate, reference compound] |  |  |  |  |  | Effect of individual compound, LD50 (μ g/g) (Table 5-2) ([1]; compound alone): > 100 μ g/g; death ratio (%), mixture with Compound No. 1 ([2]; Table 9, dust mixed with 1, RN): 0%; death ratio (%), mixture with Compound No. 6* ([2]; Table 9, dust mixed with 6*, RN): 5.0%; death ratio (%), mixture with Compound No. 24* ([2]; Table 9, dust mixed with 24*, RN): 0%; death ratio (%), mixture with Compound No. 35* ([2]; Table 9, dust mixed with 35*, RN): 15.0%; death ratio (%), mixture with Compound No. 40* ([2]; Table 9, dust mixed with 40*, RN): 20.0%; death ratio (%), mixture with Compound No. 49* ([2]; Table 9, dust mixed with 49*, RN): 0%; death ratio (%), mixture with Compound No. 81* ([2]; Table 9, dust mixed with 81*, RN): 10.0%; death ratio (%), mixture with Compound No. 118* ([2]; Table 9, dust mixed with 118*, RN): 57.5%; death ratio (%), mixture with Carbofuran ([2]; Table 9, dust mixed with Carbofuran, RN): 30.0%; death ratio (%), mixture with Methomyl ([2]; Table 9, dust mixed with Methomyl, RN): 35.0%; Effect of individual compound (RN), death ratio (%) (Table 9) [2]: 0%
CCC(C)Oc1ccccc1OC(=O)NC (centres unmarked) [Compound 86, reference compound] |  |  | 2.1e-06 M | 31.9 | 6.7e-05 M | 
C=CCOc1ccccc1OC(=O)NC [Compound 88, reference compound] |  |  | 7e-06 M | 15.7 | 0.00011 M | 
C#CCOc1ccccc1OC(=O)NC [Compound 90, reference compound] |  |  | 8.2e-06 M | 9.6 | 7.9e-05 M | 
CCNC(=O)Oc1cccc(OCC)c1 [Compound 93] |  |  | 0.00044 M | 0.8 | 0.00035 M | 
C=CCOc1cccc(OC(=O)NC)c1 [Compound 98, reference compound] |  |  | 4.1e-06 M | 87.8 | 0.00036 M | 
C#CCOc1cccc(OC(=O)NC)c1 [Compound 100, reference compound] |  |  | 3.5e-05 M | 24.3 | 0.00085 M | 
CNC(=O)Oc1ccccc1N(C)C [Compound 106, reference compound] |  |  | 9.6e-06 M | 13.5 | 0.00013 M | 
CNC(=O)ON=C(C)SC [Methomyl, 1(methylthio)ethylideneamino-N-methylcarbamate, reference compound] |  |  |  |  |  | Effect of individual compound (RN), death ratio (%) (Table 9) [2]: 35.0%
